We go through 8 molecules from paper PMC3909116 (PLoS ONE, 2014).

One data set concerns M. tuberculosis. To be noted: against M. tuberculosis; cited from earlier work.
A further data set has as its system M. tuberculosis H37Rv. It is filed as in vivo.
A short description of the next data set: in vivo. Set-up: species or system Balb/c mice. To be noted: male, Balb/c, mouse, po, 30 mg/kg. As to the method: Samples were analyzed by LC-MS.
(A) Mouse survival curves from maximum tolerated dose study. All mice (n = 5) received one dose daily 6 times weekly for 4 weeks. 80% aqueous propylene glycol, (vehicle control).
Half-life and sequential exposure time of drug in serum is critical for its in vivo efficacious activity.

SMILES strings stand for the structures. Read-outs that look alike come from different tables or passages of the source.

As to `C[C@]1(COc2ccc(N3CCC(Oc4ccc(OC(F)(F)F)cc4)CC3)cc2)Cn2cc([N+](=O)[O-])nc2O1` [Delamanid], the minimal inhibitory concentration (MIC) in the data set on M. tuberculosis was 0.006 to 0.024 µg/mL. Turning to `NNC(=O)c1ccncc1` [INH, isoniazid], the minimal inhibitory concentration (MIC) in the data set with M. tuberculosis is 0.3 µM. Also, in the data set on M. tuberculosis H37Rv (relative to counts at initiation of chemotherapy (4.26 log10), Balb/c mice, oral once daily 6 times per week for 4 weeks, ND-09759 30 mg/kg, INH 25 mg/kg, RMP 20 mg/kg), the “reduction of M. tuberculosis bacterial load in the spleen” value was found to be 0.38 log10. Besides, the “reduction of M. tuberculosis bacterial load in the lung” value in the data set on M. tuberculosis H37Rv (relative to counts at initiation of chemotherapy (5.18 log10), Balb/c mice, oral once daily 6 times per week for 4 weeks, ND-09759 30 mg/kg, INH 25 mg/kg, RMP 20 mg/kg) was 0.27 log10. With `CC(=O)NC[C@H]1CN(c2ccc(N3CCOCC3)c(F)c2)C(=O)O1` [Linezolid], the MIC in the data set on M. tuberculosis was 0.25 to 1 µg/mL. In the data set “in vivo”, `Cc1ccn2c(C(=O)NCc3ccc(Oc4ccc(Cl)cc4)cc3)c(C)nc2c1` [ND-09759, N-(4-(4-chlorophenoxy)benzyl)-2,7-dimethylimidazo[1,2-a]pyridine-3-carboxamide] had an area under the curve AUC(0-t) of 22200 ng·h/mL, a Cmax of 2900 ng/mL and a half-life of 20.1 h. As for `O=[N+]([O-])c1cn2c(n1)OC[C@@H](OCc1ccc(OC(F)(F)F)cc1)C2` [PA-824], the minimal inhibitory concentration (MIC) in the data set on M. tuberculosis was 0.015 to 0.25 µg/mL. For the molecule `CO[C@H]1/C=C/O[C@@]2(C)Oc3c(C)c(O)c4c(O)c(c(/C=N/N5CCN(C)CC5)c(O)c4c3C2=O)NC(=O)/C(C)=C\C=C\[C@H](C)[C@H](O)[C@@H](C)[C@@H](O)[C@@H](C)[C@H](OC(C)=O)[C@@H]1C` [RMP, rifampicin], the MIC in the data set on M. tuberculosis was 0.003 µM. In the data set on M. tuberculosis H37Rv (in vivo), the “reduction of M. tuberculosis bacterial load in the lung” value stood at 0.23 log10 and the “reduction of M. tuberculosis bacterial load in the spleen” value came out at 0.35 log10.

With `CC(C)=CCC/C(C)=C/CNCCNC1C2CC3CC(C2)CC1C3` (centres unmarked) [SQ109], the MIC in the data set with M. tuberculosis is 0.7 to 1.56 µM. In the case of `COc1nc2ccc(Br)cc2cc1[C@@H](c1ccccc1)[C@@](O)(CCN(C)C)c1cccc2ccccc12` [TMC 207], the MIC in the data set on M. tuberculosis is on record as 0.030−0.120 µg/ml.

By MIC is commonly meant the lowest concentration found to suppress growth. Broadly, the AUC(0-t) is exposure summed from dosing to a finite time, without extrapolation to infinity. A high value points to high exposure. Usually Cmax stands for the highest concentration seen after dosing. Broadly, the half-life is the time needed for the level to fall by half in the phase considered. Read a low half-life as rapid decline.
